In patent publication US9227971B2, “Pyrazolo[1,5-a]pyrimidine compounds as mTOR inhibitors” (Merck Sharp & Dohme Corp., priority 2010, dated 2016):
Where two headings read alike, the source gives them in different places.

Assays:
[1] = test system: phosphorylated AKT Ser473 (pAKT S473), mTORC2 activity, PC3 cells; experiment: mTOR target engagement assay, immunofluorescent cell-based, pAKT S473 readout (mTORC2 activity)
Method in brief: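 After blocking, cells were stained overnight at 4 °C with anti-pAKT S473 antibody, then a fluorescent secondary; inhibition was read as reduced fluorescence intensity.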

[2] = test system: phosphorylated 4E-BP1 Thr37/46 (p4E-BP1 Thr37/46), mTORC1 activity, PC3 cells; experiment: mTOR target engagement assay, immunofluorescent cell-based, p4E-BP1 Thr37/46 readout (mTORC1 activity); conditions: read-out: p4E-BP1 Thr37/46 IC50
Method in brief: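 Read-out is fluorescence intensity of immunostained p4E-BP1 Thr37/46 in fixed PC3 cells, fitted to a logistic curve for IC50 with DMSO-only wells as top. Cells had been exposed to serial compound dilutions for ninety minutes at 37° C in 5% FBS medium with 0.25% DMSO.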

IC50 ([1]; PC3 cells) [nM] | IC50 ([2]; PC3 cells) [nM] | SMILES | IC50 ([1]; Homo sapiens, PC-3, PC3 cells) [nM] | IC50 ([2]; Homo sapiens, PC-3, PC3 cells) [nM]
 |  | CC(=O)c1c([C@@H]2C[C@H]3CC[C@@H](C2)N3C(=O)c2nnc[nH]2)nc2c(-c3ccc(C#CC4CC4)nc3)cnn2c1N [Compound 8.60, 1-(5-((1R,3s,5S)-8-(4H-1,2,4-triazole-3-carbonyl)-8-azabicyclo[3.2.1]octan-3-yl)-7-amino-3-(6-(cyclopropylethynyl)pyridin-3-yl)pyrazolo[1,5-a]pyrimidin-6-yl)ethanone] | 100 to 1000 | 100 to 1000
 |  | CC(=O)c1c([C@@H]2C[C@H]3CC[C@@H](C2)N3C(=O)CO)nc2c(-c3ccc(C#CC4CC4)nc3)cnn2c1N [Compound 8.61, 1-((1R,3s,5S)-3-(6-acetyl-7-amino-3-(6-(cyclopropylethynyl)pyridin-3-yl)pyrazolo[1,5-a]pyrimidin-5-yl)-8-azabicyclo[3.2.1]octan-8-yl)-2-hydroxyethanone] | 100 to 1000 | 100 to 1000
 |  | Nc1c(C2CC2)c([C@@H]2C[C@H]3CC[C@@H](C2)N3C(=O)c2nnc[nH]2)nc2c(C#Cc3cccnc3)cnn12 [Compound 8.62, ((1R,3s,5S)-3-(7-amino-6-cyclopropyl-3-(pyridin-3-ylethynyl)pyrazolo[1,5-a]pyrimidin-5-yl)-8-azabicyclo[3.2.1]octan-8-yl)(4H-1,2,4-triazol-3-yl)methanone] | 1000 to 10000 | 1000 to 10000
 |  | CS(=O)(=O)c1c([C@@H]2C[C@H]3CC[C@@H](C2)N3c2nccc(N)n2)nc2c(-c3ccc(-c4ccccc4)nc3)cnn2c1N [Compound 8.63, 5-((1R,3s,5S)-8-(4-aminopyrimidin-2-yl)-8-azabicyclo[3.2.1]octan-3-yl)-6-(methylsulfonyl)-3-(6-phenylpyridin-3-yl)pyrazolo[1,5-a]pyrimidin-7-amine] | 1000 to 10000 | 1000 to 10000
 |  | CS(=O)(=O)c1c([C@@H]2C[C@H]3CC[C@@H](C2)N3c2ncncc2N)nc2c(-c3ccc(-c4ccccc4)nc3)cnn2c1N [Compound 8.64, 5-((1R,3s,5S)-8-(5-aminopyrimidin-4-yl)-8-azabicyclo[3.2.1]octan-3-yl)-6-(methylsulfonyl)-3-(6-phenylpyridin-3-yl)pyrazolo[1,5-a]pyrimidin-7-amine] | 100 to 1000 | 1000 to 10000
 |  | CS(=O)(=O)c1c([C@@H]2C[C@H]3CC[C@@H](C2)N3C#N)nc2c(-c3ccc(-c4ccccc4)nc3)cnn2c1N [Compound 8.70, (1R,3s,5S)-3-(7-amino-6-(methylsulfonyl)-3-(6-phenylpyridin-3-yl)pyrazolo[1,5-a]pyrimidin-5-yl)-8-azabicyclo[3.2.1]octane-8-carbonitrile] | 100 to 1000 | 1000 to 10000
 |  | CC(=O)c1c([C@@H]2C[C@H]3CC[C@@H](C2)N3C#N)nc2c(-c3ccc(-c4ccccc4)nc3)cnn2c1N [Compound 8.71, (1R,3s,5S)-3-(6-acetyl-7-amino-3-(6-phenylpyridin-3-yl)pyrazolo[1,5-a]pyrimidin-5-yl)-8-azabicyclo[3.2.1]octane-8-carbonitrile] | 100 to 1000 | 100 to 1000
1000 to 10000 | 1000 to 10000 | CS(=O)(=O)c1c([C@@H]2C[C@H]3CC[C@@H](C2)N3C(=N)NO)nc2c(-c3ccc(-c4ccccc4)nc3)cnn2c1N [Compound 8.72, (1R,3s,5S)-3-(7-amino-6-(methylsulfonyl)-3-(6-phenylpyridin-3-yl)pyrazolo[1,5-a]pyrimidin-5-yl)-N-hydroxy-8-azabicyclo[3.2.1]octane-8-carboximidamide] |  | 
 |  | CS(=O)(=O)c1c([C@@H]2C[C@H]3CC[C@@H](C2)N3C(=N)N)nc2c(-c3ccc(-c4ccccc4)nc3)cnn2c1N [Compound 8.73, (1R,3s,5S)-3-(7-amino-6-(methylsulfonyl)-3-(6-phenylpyridin-3-yl)pyrazolo[1,5-a]pyrimidin-5-yl)-8-azabicyclo[3.2.1]octane-8-carboximidamide] | 1000 to 10000 | 1000 to 10000
 |  | CS(=O)(=O)c1c([C@@H]2C[C@H]3CC[C@@H](C2)N3c2noc(=O)[nH]2)nc2c(-c3ccc(-c4ccccc4)nc3)cnn2c1N [Compound 8.74, 3-((1R,3s,5S)-3-(7-amino-6-(methylsulfonyl)-3-(6-phenylpyridin-3-yl)pyrazolo[1,5-a]pyrimidin-5-yl)-8-azabicyclo[3.2.1]octan-8-yl)-1,2,4-oxadiazol-5(4H)-one] | 1000 to 10000 | > 10000
 |  | CNC(=O)Nc1ccc(-c2cnn3c(N)c(C(C)=O)c([C@@H]4C[C@H]5CC[C@@H](C4)N5C(=O)c4ncn[nH]4)nc23)cn1 [Compound 8.75, 1-(5-(5-((1R,3s,5S)-8-(1H-1,2,4-triazole-5-carbonyl)-8-azabicyclo[3.2.1]octan-3-yl)-6-acetyl-7-aminopyrazolo[1,5-a]pyrimidin-3-yl)pyridin-2-yl)-3-methylurea] | 1 to 100 | 100 to 1000
 |  | CC(=O)Nc1ccc(-c2cnn3c(N)c(C(C)=O)c([C@@H]4C[C@H]5CC[C@@H](C4)N5C(=O)c4ncn[nH]4)nc23)cn1 [Compound 8.76, N-(5-(5-((1R,3s,5S)-8-(1H-1,2,4-triazole-5-carbonyl)-8-azabicyclo[3.2.1]octan-3-yl)-6-acetyl-7-aminopyrazolo[1,5-a]pyrimidin-3-yl)pyridin-2-yl)acetamide] | 1 to 100 | 1 to 100
 |  | CCOC(=O)Nc1ccc(-c2cnn3c(N)c(C(C)=O)c([C@@H]4C[C@H]5CC[C@@H](C4)N5C(=O)c4ncn[nH]4)nc23)cn1 [Compound 8.78, ethyl 5-(5-((1R,3s,5S)-8-(1H-1,2,4-triazole-5-carbonyl)-8-azabicyclo[3.2.1]octan-3-yl)-6-acetyl-7-aminopyrazolo[1,5-a]pyrimidin-3-yl)pyridin-2-ylcarbamate] | 1 to 100 | 1 to 100
 |  | CNC(=O)Nc1ccc(-c2cnn3c(N)cc([C@@H]4C[C@H]5CC[C@@H](C4)N5C(=O)c4nnc[nH]4)nc23)cc1 [Compound 8.80, 1-(4-(5-((1R,3s,5S)-8-(4H-1,2,4-triazole-3-carbonyl)-8-azabicyclo[3.2.1]octan-3-yl)-7-aminopyrazolo[1,5-a]pyrimidin-3-yl)phenyl)-3-methylurea] | > 10000 | > 10000
 |  | CNC(=O)Nc1ccc(-c2cnn3c(N)cc([C@@H]4C[C@H]5CC[C@@H](C4)N5C(=O)CO)nc23)cc1 [Compound 8.82, 1-(4-(7-amino-5-((1R,3s,5S)-8-(2-hydroxyacetyl)-8-azabicyclo[3.2.1]octan-3-yl)pyrazolo[1,5-a]pyrimidin-3-yl)phenyl)-3-methylurea] | > 10000 | > 10000
 |  | CNC(=O)Nc1ccc(-c2cnn3c(N)c(C(C)=O)c([C@@H]4C[C@H]5CC[C@@H](C4)N5C(=O)c4nnc[nH]4)nc23)cc1 [Compound 8.85, 1-(4-(5-((1R,3s,5S)-8-(4H-1,2,4-triazole-3-carbonyl)-8-azabicyclo[3.2.1]octan-3-yl)-6-acetyl-7-aminopyrazolo[1,5-a]pyrimidin-3-yl)phenyl)-3-methylurea] | 1 to 100 | 100 to 1000
 |  | N#C/N=C(\N)N1[C@@H]2CC[C@H]1C[C@H](c1cc(N)n3ncc(-c4ccc(-c5ccccc5)nc4)c3n1)C2 [Compound 8.86] | 1000 to 10000 | 1000 to 10000
 |  | CS(=O)(=O)c1c([C@@H]2C[C@H]3CC[C@@H](C2)N3/C(N)=N/C#N)nc2c(-c3ccc(-c4ccccc4)nc3)cnn2c1N [Compound 8.87, (1R,3s,5S,E)-3-(7-amino-6-(methylsulfonyl)-3-(6-phenylpyridin-3-yl)pyrazolo[1,5-a]pyrimidin-5-yl)-N′-cyano-8-azabicyclo[3.2.1]octane-8-carboximidamide] | 1 to 100 | 100 to 1000
 |  | N#Cc1ncc(-c2cnn3c(N)cc([C@@H]4C[C@H]5CC[C@@H](C4)N5C(=O)c4nnc[nH]4)nc23)cn1 [Compound 8.95, 5-(5-((1R,3s,5S)-8-(4H-1,2,4-triazole-3-carbonyl)-8-azabicyclo[3.2.1]octan-3-yl)-7-aminopyrazolo[1,5-a]pyrimidin-3-yl)pyrimidine-2-carbonitrile] | > 10000 | > 10000
 |  | N#Cc1ncc(-c2cnn3c(N)c(C4CC4)c([C@@H]4C[C@H]5CC[C@@H](C4)N5C(=O)c4nnc[nH]4)nc23)cn1 [Compound 8.96, 5-(5-((1R,3s,5S)-8-(4H-1,2,4-triazole-3-carbonyl)-8-azabicyclo[3.2.1]octan-3-yl)-7-amino-6-cyclopropylpyrazolo[1,5-a]pyrimidin-3-yl)pyrimidine-2-carbonitrile] | 1000 to 10000 | 1000 to 10000
 |  | Nc1c(C2CC2)c(C2CC3CCC(C2)N3C(=O)c2nnc(N3CCNCC3)[nH]2)nc2c(-c3ccc(-c4ccccc4)nc3)cnn12 [Compound 8.98, ((1R,3s,5S)-3-(7-amino-6-cyclopropyl-3-(6-phenylpyridin-3-yl)pyrazolo[1,5-a]pyrimidin-5-yl)-8-azabicyclo[3.2.1]octan-8-yl)(5-(piperazin-1-yl)-4H-1,2,4-triazol-3-yl)methanone] | 1000 to 10000 | 1000 to 10000
 |  | COCCOc1nnc(C(=O)N2C3CCC2CC(c2nc4c(-c5ccc(-c6ccccc6)nc5)cnn4c(N)c2C2CC2)C3)[nH]1 [Compound 8.100, ((1R,3s,5S)-3-(7-amino-6-cyclopropyl-3-(6-phenylpyridin-3-yl)pyrazolo[1,5-a]pyrimidin-5-yl)-8-azabicyclo[3.2.1]octan-8-yl)(5-(2-methoxyethoxy)-4H-1,2,4-triazol-3-yl)methanone] | 100 to 1000 | 100 to 1000
